From US9856247B2, “4-methyl-dihydropyrimidines for the treatment and prophylaxis of Hepatitis B virus infection” (Hoffmann-La Roche Inc., priority 2012, dated 2018)

Assays:
[1] = Stability in mouse liver homogenate; format: in vitro ADME, CD-1 mouse
Experimental: In this experiment, fresh mouse liver sample was homogenized by adding saline (1 g liver tissue: 5 mL saline) immediately after collection. After centrifuging for 10 minutes at 14000 rpm, the pooled supernatant was used to prepare liver homogenate solutions. […] Then, they were incubated at rt. After incubation time of 0, 15 and 30 minutes, 180 μl aliquots of MeOH was added into 20 μl of homogenate, respectively. All these samples were vortex mixed for 5 minutes at 1500 rpm and centrifuged for 10 minutes at 14000 rpm. The supernatants were transferred into a 96-well plate for LC-MS/MS analysis.
The Chromatographic separation was achieved on a Chromolith Performance RP-18 endcapped (3×100 mm) at room temperature.
Data processing was performed with Agilent MassHunter Workstation Data Acquisition B.04.00 and Agilent MassHunter Workstation Qualitative Analysis B.04.00.

[2] = Incubation with human liver microsomes (metabolite formation); format: in vitro ADME; conditions: 5 μM, 1 mM NADPH, 60 minutes
Experimental: (§1) In this experiment, pooled liver microsomes (20 mg/ml) from human, male Wister rat and male CD-1 mouse were obtained from BD Bioscience (Franklin Lakes, N.J. USA). Incubation reaction mixtures contained a final concentration of 0.1M sodium phosphate buffer (pH 7.4), 0.5 mg/ml microsomal protein, 5 μM of the tested compounds and 1 mM NADPH in a total volume of 400 μl. The incubations were done for 60 minutes and 300 μl of the mixtures was transferred to 150 μl of ice cold methanol to terminate reactions. After vortexes for 3 minutes and centrifuged at 4000 rpm at 4° C. for 10 minutes, the clear supernatant was used directly for analysis. The samples were analyzed by Applied Biosystems API 3200 Q TRAP LC/MS/MS system using electrospray ionization mode.

[3] = Incubation with rat liver microsomes (metabolite formation); format: in vitro ADME, male Wister rat; conditions: 5 μM, 1 mM NADPH, 60 minutes
Experimental: as §1

[4] = Incubation with mouse liver microsomes (metabolite formation); format: in vitro ADME, male CD-1 mouse; conditions: 5 μM, 1 mM NADPH, 60 minutes
Experimental: as §1

HBV = HBV infected transgenic mouse or humanized mouse models; cited from earlier work

In the case of `COC(=O)C1=C(C)NC(c2ncc(F)cc2F)=N[C@H]1c1ccc(F)cc1Cl` [Bay 41-4109], the “Percentage to 0 min” value ([1]; 100 ng/mL, incubation time 0 min) is reported as 100%, the “Percentage to 0 min” value ([1]; 100 ng/mL, incubation time 15 min, rt) is reported as 1.84% and the “Percentage to 0 min” value ([1]; 300 ng/mL, incubation time 0 min) is reported as 100%. For the same compound, the “Percentage to 0 min” value ([1]; 300 ng/mL, incubation time 30 min, rt) was 0%, the “Percentage to 0 min” value ([1]; 1000 ng/mL, incubation time 0 min) was 100% and the “Percentage to 0 min” value ([1]; 1000 ng/mL, incubation time 15 min, rt) was 1.90%. For the same compound, the “Percentage to 0 min” value ([1]; 1000 ng/mL, incubation time 30 min, rt) was 0.16%, the “compound detected after incubation” value ([1]; 15 minutes room temperature incubation, at three different concentration levels) was “About 2%” and the “stability in liver homogenate treated with saline” value ([1]; conclusion in words) was “not stable”. For the same compound, the “conversion to pyrimidine product XLVI” value [2] was “converted to XLVI”, the “conversion to pyrimidine product XLVI” value [3] was “oxidized to pyrimidine product XLVI” and the “conversion to pyrimidine product XLVI” value [4] was “oxidized to pyrimidine product XLVI”. The “in vivo efficacy (HBV DNA reduction)” value (HBV) was “demonstrated in vivo efficacy with HBV DNA reduction”.
